Experimental data: paper PMC7311950, “Potent Tetrahydroquinolone Eliminates Apicomplexan Parasites” (Frontiers in Cellular and Infection Microbiology, 2020)
Converted amounts (≈) assume the structure as drawn.

Experiments:
[1] = tested on: T. gondii RH-YFP tachyzoites; experiment: In vitro challenge assay, RH strain YFP tachyzoites in HFF; assay type: cell-based; settings: Toxoplasma gondii; RH-YFP tachyzoites in HFF; Figure 1A; read-out: Tachy IC50
Description: RH strain YFP Tachyzoites. Protocol was adapted from Fomovska et al. ([2012a],[b]) for HFF. HFF were cultured on a flat, clear-bottomed, black 96-well plate to 90–100% confluence. IMDM (1x, [+] glutamine, [+] 25 mM HEPES, [+] Phenol red, 10% FBS [Gibco, Denmark]) was removed and replaced with IMDM-C(1x, [+] glutamine, [+] 25 mM HEPES, [–] Phenol red, 10% FBS)[Gibco, Denmark]). RH-YFP, lysed from host cells by passing twice through a 27-gauge needle, were counted, then diluted to 32,000/mL in IMDM-C. HFF were infected with 3200 RH-YFP, then returned to 37°C, CO2 (5%) incubator for 1–2 h for infection. Various concentrations of the compounds in 20 μL IMDM-C were added to each well. There were triplicates for each condition. Controls were pyrimethamine/sulfadiazine (standard treatment), 0.1% DMSO only, HFF only, and untreated cultures of HFF infected with 2-fold dilutions of YFP expressing parasites (called “YFP gradient” to establish amount of color from known numbers of YFP expressing parasites). Cells were incubated at 37°C for 72 h. Plates were read using a fluorimeter (Synergy H4 Hybrid Reader, BioTek) to ascertain amount of relative fluorescence units (RFU) YFP, to measure parasite burden after treatment. Data were collected using Gen5 software with IC50 calculated by graphical analysis in Excel.
An initial screening assay of 10 μM, 1 μM, 100 nM, and 10 nM of the compounds was performed. Compounds were not considered effective or pursued for further analysis if there was no inhibition of tachyzoites at 1 μM. If compounds were effective at 1 μM, another experiment was performed to assess effect at 1 μM, 500, 250, 125, 62.5, and 31.25 nM.

[2] = molecular target: T1, P. falciparum bc1 complex cytochrome c reductase (Pfbc1) (Plasmodium falciparum, UniProt Q02768); experiment: Pfbc1 native assay (cytochrome c reduction by parasite extract); assay type: biochemical; settings: atovaquone 1 μM positive control, X ± S.D., N = 4
T1 construct: Parasite extract was then prepared by disruption with a sonicating probe; endogenous in cells; host or cells: P. falciparum strain 3D7 blood-stage culture, sonicated parasite extract
T1 sequence (Q02768 1-376): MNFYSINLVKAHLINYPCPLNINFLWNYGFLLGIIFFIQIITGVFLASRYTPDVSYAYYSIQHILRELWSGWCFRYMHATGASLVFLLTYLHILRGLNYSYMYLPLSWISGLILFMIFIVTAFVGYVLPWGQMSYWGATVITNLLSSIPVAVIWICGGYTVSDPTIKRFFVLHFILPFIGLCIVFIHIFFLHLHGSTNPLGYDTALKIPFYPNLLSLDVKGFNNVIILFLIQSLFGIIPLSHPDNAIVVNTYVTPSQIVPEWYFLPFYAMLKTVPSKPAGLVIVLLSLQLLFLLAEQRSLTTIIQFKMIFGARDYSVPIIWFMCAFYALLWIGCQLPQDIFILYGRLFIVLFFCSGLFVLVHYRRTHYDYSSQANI
Description: P. falciparum 3D7 strain were obtained from the Liverpool School of Tropical Medicine. Protease cocktail inhibitor was obtained from Roche. Bradford protein assay dye reagent was obtained from Bio-Rad. All other reagents were obtained from Sigma-Aldrich. Decylubiquinol was produced as per Fisher et al. ([2009]). In brief, 25 mg of decylubiquinone were dissolved in 400 μL of nitrogen-saturated hexane. An equal volume of aqueous 1 M sodium dithionite was added, and the mixture vortexed until colorless. The organic phase containing the decylubiquinol was collected, the solvent was evaporated under N2 and the decylubiquinol finally dissolved in 100 μL of 96% ethanol (acidified with 10 mM HCl). Concentrations of decylubiquinol was determined spectrophotometrically on a Cary 300 Bio UV/visible spectrophotometer (Varian, UK) from absolute spectra, using ε288−−320 = 8.1 mM^−1.cm^−1. Decylubiquinol was stored at −80°C and used within 2 weeks. […]
The protocol for the preparation of parasite extract was adapted from Fisher et al. ([2009]). […] The protein concentration of the parasite extract was determined by Bradford protein assay (Bio-Rad).
P. falciparum bc1 complex cytochrome c reductase (Pfbc1) activity was measured by monitoring cytochrome c reduction at 550 vs. 542 nm using a Cary 300 Bio UV-Visible Spectrophotometer (Varian, UK), using a protocol adapted from Fisher et al. ([2009]). […]

[3] = Kinetic solubility in PBS pH 7.4 (Chem Partners); settings: PBS, pH 7.4, aqueous buffer, kinetic from dmso stock
Description: The effects of changing R1 as 7-Et, 7-Me, 6-CF3, or 6-Me on activity against RH strain tachyzoites, kinetic solubility, and metabolic stability were compared. Kinetic solubility and metabolic stability in human or murine liver microsomes were measured. The hERG (human Ether-à-go-go-Related) liability was also determined. The hERG gene (KCNH2) encodes a protein Kv11.1, the alpha subunit of a potassium ion channel. This channel conducts the rapid component of the delayed rectifier potassium current, IKr, which is critical for repolarization of cardiac action potentials. A reduction in hERG currents from adverse drug effects can lead to long QT interval syndromes. These syndromes are characterized by action potential prolongation, lengthening of the QT interval on surface EKG, and an increased risk for “torsade de pointes” arrhythmias and sudden death. The MDCK-MDR1 Permeability Assay was also performed. MDCK-MDR1 refers to the ability of a compound to permeate across membranes of MDCK-MDR1 (Madin Darby canine kidney [MDCK] cells with the MDR1 gene [ABCB1], the gene encoding for the efflux protein, P-glycoprotein (P-gp)) in vitro. Assessing transport in both directions (apical to basolateral and basolateral to apical) across the cell monolayers enables an efflux ratio to be determined. […] This provides a prediction of blood brain barrier (BBB) penetration potential/permeability and efflux ratio. Effect in CACO-2 (Colon Adenocarcinoma cells) as a permeability assay and on cytochrome P450 (CYP 450) were also determined. CYP enzymes catalyze oxidative biotransformation (phase 1 metabolism) of most drugs. CYP enzymes, bind to membranes in a cell (cyto) and contain a heme pigment (chrome and P) that absorbs light at a wavelength of 450 nm when exposed to carbon monoxide. Metabolism of a drug by CYP enzymes is a major source of variability in drug effect. These were measured by Chem Partners. The relative effect on HFF and parasite enzymes also were compared.

P. berghei sporozoites = tested on: P. berghei sporozoites; parameters: method as in Doggett et al., 2012; Frueh et al., 2017; settings: doses between 1 and 20 mg/kg, not the prodrug; ref Doggett et al., 2012; Frueh et al., 2017; cited from earlier work

Row | Compound | IC50 [1] | inhibition at 1 µM [2] | solubility kinetic [3] | efficacy in the in vivo malaria model (P. berghei sporozoites)
1 | O=c1c2c([nH]c(CO)c1-c1ccc(Oc3ccc(OC(F)(F)F)cc3)cc1)CCCC2 [JAG099] | 380 nM | 81.3 ± 6% | 4.05 µM (≈ 1.75 µg/mL) | –
2 | COc1cc2[nH]c(C)c(-c3ccc(Oc4ccc(OC(F)(F)F)cc4)cc3)c(=O)c2cc1Cl [ELQ 300] | – | – | – | not effective
